# ChEMBL document CHEMBL5725614, “Histone demethylase inhibitors” (2018)
# Test: PHF8 Assay: The ability of test compounds to inhibit the activity of PHF8 was determined in 384-well plate format under the following reaction conditions: 3 nM PHF8, 200 nM H3K9me1-biotin labeled peptide (Anaspec cat #64358), 0.5 μM alpha-ketoglutaric acid in assay buffer of 50 mM HEPES, pH7.3, 0.005% Brij35, 0.5 mM TCEP, 0.2 mg/ml BSA, 50 μM sodium L-ascorbate, and 5 μM ammonium iron(II) sulfate. Reaction product was determined quantitatively by TR-FRET after the addition of detection reagent Phycolink Streptavidin-allophycocyanin (Prozyme) and Europium-anti-unmodified-histone H3 lysine 9/lysine27 (H3K9/K27) antibody (PerkinElmer) in the presence of 5 mM EDTA in LANCE detection buffer (PerkinElmer) at a final concentration of 25 nM and 0.5 nM, respectively.The assay reaction was initiated by the following: 2 μl of the mixture of 600 nM H3K9me1-biotin labeled peptide and 1.5 μM alpha-ketoglutaric acid with 2 μl of 11-point serial diluted inhibitor in 3% DMSO were added to each well of the plate, followed by the addition of 2 μl of 9 nM PHF8 to initiate the reaction. The reaction mixture was incubated at room temperature for 15 minutes, and terminated by the addition of 6 μl of 5 mM EDTA in LANCE detection buffer containing 50 nM Phycolink Streptavidin-allophycocyanin and 1 nM Europium-anti-unmodified H3K9/K27 antibody. Plates were read by EnVision Multilabel Reader in TR-FRET mode (excitation at 320 nm, emission at 615 nm and 665 nm) after 1 hour incubation at room temperature. A ratio was calculated (665/615) for each well and fitted to determine inhibition constant (IC50).
row,SMILES,IC50
1,Clc1ccc(Cn2cnc(-c3cc4[nH]nnc4cn3)c2)cc1,in the range around 5500 nM
2,Clc1cc(Cl)cc(-n2cnc(-c3cc4[nH]nnc4cn3)c2)c1,in the range around 5500 nM
3,Clc1ccccc1-n1cnc(-c2cc3[nH]nnc3cn2)c1,in the range around 5500 nM
4,N#Cc1[nH]nnc1-c1ccnc(-c2cn(CC3CCCc4ccccc43)cn2)c1 (stereo not drawn),in the range around 550 nM
5,Clc1cccc(Cn2cnc(-c3cc(-c4c[nH]nn4)ccn3)c2)c1Cl,in the range around 550 nM
6,c1ccc(COc2ccccc2CCn2cnc(-c3cc(-c4c[nH]nn4)ccn3)c2)cc1,in the range around 5500 nM
7,COc1ccccc1CCn1cnc(-c2cc(-c3c[nH]nn3)ccn2)c1,in the range around 550 nM
8,COc1cc(-c2c(-c3cc(-c4c[nH]nn4)ccn3)ncn2C)ccc1F,in the range around 550 nM
9,c1nc(-c2cn(CC3CC3)cn2)cc2[nH]nnc12,in the range around 5500 nM
10,Clc1cccc(Cn2cnc(-c3cc4[nH]nnc4cn3)c2)c1,in the range around 5500 nM
11,Clc1cccc(-n2cnc(-c3cc4[nH]nnc4cn3)c2)c1,in the range around 5500 nM
12,CC(Cc1ccccc1)n1cnc(-c2cc(-c3c[nH]nn3)ccn2)c1 (stereo not drawn),in the range around 5500 nM
13,c1ccc2c(CCn3cnc(-c4cc(-c5c[nH]nn5)ccn4)c3)cccc2c1,in the range around 550 nM
14,N#Cc1[nH]nnc1-c1ccnc(-c2cn(CCc3cccc4ccccc34)cn2)c1,in the range around 550 nM
15,FC(F)(F)COc1ccccc1CCn1cnc(-c2cc(-c3c[nH]nn3)ccn2)c1,in the range around 550 nM
16,CCOc1ccccc1CCn1cnc(-c2cc(-c3c[nH]nn3)ccn2)c1,in the range around 550 nM
17,Clc1ccc(Cn2cnc(-c3cc4[nH]nnc4cn3)c2)cc1Cl,in the range around 5500 nM
18,Clc1ccccc1Cn1cnc(-c2cc3[nH]nnc3cn2)c1,in the range around 5500 nM
19,FC(F)(F)Oc1ccccc1CCn1cnc(-c2cc(-c3c[nH]nn3)ccn2)c1,in the range around 550 nM
20,Clc1ccccc1Cn1cnc(-c2cc(-c3c[nH]nn3)ccn2)c1,in the range around 550 nM
21,N#Cc1[nH]nnc1-c1ccnc(-c2cn(Cc3ccccc3Cl)cn2)c1,in the range around 5500 nM

# Further lines, results first:
row,IC50,SMILES
1,in the range around 550 nM,CC(c1ccccc1)n1cnc(-c2cc(-c3c[nH]nn3)ccn2)c1 (stereo not drawn)
2,in the range around 5500 nM,Fc1c(Cn2cnc(-c3cc(-c4c[nH]nn4)ccn3)c2)cccc1OC(F)(F)F
3,in the range around 550 nM,COc1cccc(Cn2cnc(-c3cc(-c4c[nH]nn4)ccn3)c2)c1F
4,in the range around 550 nM,Clc1ccccc1Cn1cnc(-c2cc(-c3cn[nH]n3)ccn2)c1Br
5,in the range around 550 nM,FC(F)(F)c1ccccc1CCn1cnc(-c2cc(-c3c[nH]nn3)ccn2)c1
6,in the range around 550 nM,c1ccc(Cn2cnc(-c3cc4[nH]nnc4cn3)c2)cc1
7,in the range around 550 nM,Fc1[nH]nnc1-c1ccnc(-c2cn(CCc3cccc4ccccc34)cn2)c1
8,in the range around 550 nM,Fc1[nH]nnc1-c1ccnc(-c2cn(Cc3cccc(Cl)c3Cl)cn2)c1
9,in the range around 5500 nM,c1ccc(-c2ccccc2CCn2cnc(-c3cc(-c4c[nH]nn4)ccn3)c2)cc1
10,in the range around 5500 nM,c1ccc(Oc2ccccc2CCn2cnc(-c3cc(-c4c[nH]nn4)ccn3)c2)cc1
11,in the range around 5500 nM,Cn1cnc(-c2cc(-c3nn[nH]c3F)ccn2)c1-c1ccc(F)cc1OCC1CC1
12,in the range around 5500 nM,Clc1ccc(-n2cnc(-c3cc4[nH]nnc4cn3)c2)cc1
13,in the range around 5500 nM,N#Cc1[nH]nnc1-c1ccnc(-c2cn(Cc3cccc(Cl)c3Cl)cn2)c1
14,in the range around 550 nM,c1ccc2c(c1)CCCC2Cn1cnc(-c2cc(-c3c[nH]nn3)ccn2)c1 (stereo not drawn)
15,in the range around 550 nM,c1ccc(OCC2CC2)c(CCn2cnc(-c3cc(-c4c[nH]nn4)ccn3)c2)c1
16,in the range around 550 nM,CC(C)(Cn1cnc(-c2cc(-c3c[nH]nn3)ccn2)c1)c1ccccc1Cl
17,in the range around 550 nM,FC(F)(F)c1cccc(Cn2cnc(-c3cc(-c4c[nH]nn4)ccn3)c2)c1Cl
18,in the range around 550 nM,Cc1cccc(Cn2cnc(-c3cc(-c4c[nH]nn4)ccn3)c2)c1F
19,in the range around 550 nM,Clc1cccc(Cn2cnc(-c3cc(-c4nn[nH]c4I)ccn3)c2)c1Cl
20,in the range around 550 nM,Cn1cnc(-c2cc(-c3c[nH]nn3)ccn2)c1-c1ccc(F)cc1
21,in the range around 5500 nM,CCOc1cc(-c2c(-c3cc(-c4c[nH]nn4)ccn3)ncn2C)ccc1F
22,in the range around 5500 nM,Clc1[nH]nnc1-c1ccnc(-c2cn(CCc3cccc4ccccc34)cn2)c1
23,in the range around 5500 nM,Cn1cnc(-c2cc3[nH]nnc3cn2)c1-c1ccc(F)cc1
24,in the range around 5500 nM,Cn1cnc(-c2cc(-c3c[nH]nn3)ccn2)c1-c1ccc(F)cc1OCC1CC1

# Test: FBXL11 Assay: The ability of test compounds to inhibit the activity of FBXL11 was determined in 384-well plate format under the following reaction conditions: 0.15 nM FBXL11, 30 nM H3K36me2-biotin labeled peptide (Anaspec cat #64442), 0.2 μM alpha-ketoglutaric acid in assay buffer of 50 mM HEPES, pH7.3, 0.005% Brij35, 0.5 mM TCEP, 0.2 mg/ml BSA, 50 μM sodium L-ascorbate, 5 μM ammonium iron(II) sulfate. Reaction product is determined quantitatively by AlphaScreen detection after the addition of detection reagents anti-H3K36me1 antibody, AlphaScreen® Streptavidin-coated Donor beads, and AlphaScreen® Protein A Acceptor beads in 50 mM HEPES, pH7.3, 10 mM NaCl, 0.005% Brij35, 5 mM EDTA, 2 mg/ml BSA to final 10 μg/ml beads.The assay reaction was initiated by the following: 3 μl of the mixture of 90 nM H3K36me2-biotin labeled peptide and 0.6 μM alpha-ketoglutaric acid with 3 μl of 11-point serial diluted inhibitor in 3% DMSO are added to each well of 384 well Proxiplate (Perkin Elmer), followed by the addition of 3 μl of 0.45 nM FBXL11 to initiate the reaction. The reaction mixture is incubated at room temperature for 1 hour, and terminated by the addition of 3 μl of appropriate dilution of anti H3K36me1 antibody in 50 mM HEPES, pH7.3, 10 mM NaCl, 0.005% Brij35, 5 mM EDTA, 2 mg/ml BSA. Plates will then incubated at room temperature for 40 minutes, followed by addition of 3 ul of 50 μg/ml AlphaScreen® Streptavidin-coated Donor beads and AlphaScreen® Protein A Acceptor beads in 50 mM HEPES, pH7.3, 10 mM NaCl, 0.005% Brij35, 5 mM EDTA, 2 mg/ml BSA. Plates will then be read by EnVision Multilabel Reader in AlphaScreen mode after minimum 2 hour incubation at room temperature. The AlphaScreen signal for each well is used to determine inhibition constant (IC50).
row,IC50,SMILES
1,in the range around 550 nM,Clc1cccc(-n2cnc(-c3cc4[nH]nnc4cn3)c2)c1
2,in the range around 550 nM,CCOc1cc(-c2c(-c3cc(-c4c[nH]nn4)ccn3)ncn2C)ccc1F
3,in the range around 550 nM,Clc1ccccc1Cn1cnc(-c2cc(-c3c[nH]nn3)ccn2)c1
